Source: patent US20250368633A1, “AZEPINE FUSED RING COMPOUND AS RIPK1 INHIBITOR AND USE THEREOF” (ARTIVILA BIOPHARMA, priority 2022, published 2025)

What was measured:
U937 cells = test: EC50 of necroptosis inhibition in U937 cells (TSZ-induced, CellTiter-Glo); format: cell-based; conditions: Homo sapiens, U-937; TSZ (hTNF-α, SM-164, Z-VAD-FMK) 20 hours; 10 concentration points; read-out: EC50 intervals of necroptosis inhibition in U937 cells
How it was run: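 U937 cells pretreated 15 min with compound (10-point, 1:3 series), then necroptosis induced by TSZ (hTNF-α, SM-164, Z-VAD-FMK) for 20 h at 37 °C. Viability measured as ATP by CellTiter-Glo luminescence; inhibition normalised to untreated and TSZ-only wells, EC50 from four-parameter fit.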

RIPK1 kinase = biological target: T1, RIPK1 kinase (Homo sapiens, UniProt Q13546); test: In vitro RIPK1 kinase activity IC50 assay (ADP-Glo); format: biochemical; conditions: ATP 10 μM; MBP substrate 100 μg/mL; 8 concentration points; read-out: IC50 range of compounds for RIPK1 kinase activity
T1 construct: purchased Promega VA7593
T1 sequence (Q13546 1-671): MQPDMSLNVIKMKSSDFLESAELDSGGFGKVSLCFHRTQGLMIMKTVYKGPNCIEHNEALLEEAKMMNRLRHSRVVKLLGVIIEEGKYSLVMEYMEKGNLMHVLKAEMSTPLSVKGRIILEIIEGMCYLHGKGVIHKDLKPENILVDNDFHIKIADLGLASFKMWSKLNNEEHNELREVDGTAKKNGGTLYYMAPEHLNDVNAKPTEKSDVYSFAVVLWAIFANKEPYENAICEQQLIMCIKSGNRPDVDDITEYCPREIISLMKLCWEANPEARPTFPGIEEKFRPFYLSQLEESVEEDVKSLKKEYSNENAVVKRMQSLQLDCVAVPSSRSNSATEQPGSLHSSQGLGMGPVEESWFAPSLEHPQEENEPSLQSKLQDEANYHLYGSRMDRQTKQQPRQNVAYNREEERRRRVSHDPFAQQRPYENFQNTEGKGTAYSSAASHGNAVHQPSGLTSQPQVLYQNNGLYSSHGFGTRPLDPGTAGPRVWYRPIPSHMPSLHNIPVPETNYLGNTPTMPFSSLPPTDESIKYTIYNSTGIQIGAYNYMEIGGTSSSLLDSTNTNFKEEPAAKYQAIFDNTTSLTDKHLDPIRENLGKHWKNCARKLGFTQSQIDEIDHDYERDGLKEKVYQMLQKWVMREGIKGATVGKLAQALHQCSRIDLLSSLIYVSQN
How it was run: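 Human RIPK1 preincubated 15 min at room temperature with compound (8-point 1:5 dilution series, 1% DMSO in kinase buffer D). Reaction then ran 1 h with 10 μM ATP and 100 μg/mL MBP substrate; ADP measured by ADP-Glo luminescence, IC50 from four-parameter nonlinear fit.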

| IC50 (RIPK1 kinase) [nM] | Compound | EC50 (U937 cells) [nM] |
| --- | --- | --- |
| < 100 | CN1C(=O)[C@@H](NC(=O)C(=O)NCc2ccccc2)COc2ccc(C#CCn3ccnc3)cc21 [Example 104, (S)—N^1-(7-(3-(1H-imidazol-1-yl)prop-1-yn-1-yl)-5-methyl-4-oxo-2,3,4,5-tetrahydrobenzo[b][1,4]oxazepin-3-yl)-N^2-benzyloxalamide] | < 100 |
| < 100 | CN1C(=O)[C@@H](NC(=O)C(=O)NCc2ccccc2)COc2ccc(C#CCN3CCOCC3)cc21 [Example 106, (S)—N^1-benzyl-N^2-(5-methyl-7-(3-morpholinoprop-1-yn-1-yl)-4-oxo-2,3,4,5-tetrahydrobenzo[b][1, 4]oxazepin-3-yl)oxalamide] | < 100 |
| < 100 | CN1C(=O)[C@@H](NC(=O)C(=O)NCc2ccccc2)COc2ccc(C#CCN3CCNC(=O)C3)cc21 [Example 107, (S)—N^1-benzyl-N^2-(5-methyl-4-oxo-7-(3-(3-oxopiperazin-1-yl)prop-1-yn-1-yl)-2,3,4,5-tetrahydrobenzo[b][1,4]oxazepin-3-yl)oxalamide] | < 100 |
| < 100 | CN1C(=O)[C@H](NC(=O)C(=O)NCCc2cccc(F)c2)COc2ccc(C#CCCO)cc21 [Example 109, (R)—N^1-(3-fluorophenethyl)-N^2-(7-(4-hydroxybut-1-yn-1-yl)-5-methyl-4-oxo-2,3,4,5-tetrahydrobenzo[b][1,4]oxazepin-3-yl)oxalamide] | < 100 |
| < 100 | CN1C(=O)[C@@H](NC(=O)C(=O)NCCc2cccc(F)c2)COc2ccc(C#CC3(O)COC3)cc21 [Example 110, (S)—N^1-(3-fluorophenethyl)-N^2-(7-((3-hydroxyoxetan-3-yl)ethynyl)-5-methyl-4-oxo-2,3,4,5-tetrahydrobenzo[b][1,4]oxazepin-3-yl)oxalamide] | < 100 |
| < 100 | CN1C(=O)[C@@H](NC(=O)C(=O)NCCc2cccc(F)c2)COc2ccc(C#CCN3CC[C@@H](O)C3)cc21 [Example 114, N^1-(3-fluorophenethyl)-N^2-((S)-7-(3-((R)-3-hydroxypyrrolidin-1-yl)prop-1-yn-1-yl)-5-methyl-4-oxo-2,3,4,5-tetrahydrobenzo[b][1,4]oxazepin-3-yl)oxalamide] | < 100 |
| < 100 | CN1C(=O)[C@@H](NC(=O)C(=O)NCCc2cccc(F)c2)COc2ccc(C#CCN3CC[C@H](O)C3)cc21 [Example 115, N^1-(3-fluorophenethyl)-N^2-((S)-7-(3-((S)-3-hydroxypyrrolidin-1-yl)prop-1-yn-1-yl)-5-methyl-4-oxo-2,3,4,5-tetrahydrobenzo[b][1,4]oxazepin-3-yl)oxalamide] | < 100 |
| < 100 | CN1C(=O)[C@@H](NC(=O)C(=O)NCCc2cccc(F)c2)COc2ccc(C#Cc3cccnc3)cc21 [Example 117, (S)—N^1-(3-fluorophenethyl)-N^2-(5-methyl-4-oxo-7-(pyridin-3-ylethynyl)-2,3,4,5-tetrahydrobenzo[b][1,4]oxazepin-3-yl)oxalamide] | < 100 |
| < 100 | CN1C(=O)[C@@H](NC(=O)C(=O)NCCc2cccc(F)c2)COc2ccc(C#CCN3CCC(=O)CC3)cc21 [Example 118, (S)—N^1-(3-fluorophenethyl)-N^2-(5-methyl-4-oxo-7-(3-(4-oxopiperidin-1-yl)prop-1-yn-1-yl)-2,3,4,5-tetrahydrobenzo[b][1,4]oxazepin-3-yl)oxalamide] | < 100 |
| < 100 | CN1C(=O)[C@@H](NC(=O)C(=O)NCCc2cccc(F)c2)COc2ccc(C#CCN3CCOCC3)cc21 [Example 120, (S)—N^1-(3-fluorophenethyl)-N^2-(5-methyl-7-(3-morpholinoprop-1-yn-1-yl)-4-oxo-2,3,4,5-tetrahydrobenzo[b][1,4]oxazepin-3-yl)oxalamide] | < 100 |
| < 100 | CN1C(=O)[C@@H](NC(=O)C(=O)NCCc2cccc(F)c2)COc2ccc(C#CCN3C(=O)CCC3=O)cc21 [Example 122, (S)—N^1-(7-(3-(2,5-dioxopyrrolidin-1-yl)prop-1-yn-1-yl)-5-methyl-4-oxo-2,3,4,5-tetrahydrobenzo[b][1,4]oxazepin-3-yl)-N^2-(3-fluorophenethyl)oxalamide] | < 100 |
| < 100 | CN1C(=O)[C@@H](NC(=O)C(=O)NCCc2cccc(F)c2)COc2ccc(C#CCN3CCNC(=O)C3)cc21 [Example 123, (S)—N^1-(3-fluorophenethyl)-N^2-(5-methyl-4-oxo-7-(3-(3-oxopiperazin-1-yl)prop-1-yn-1-yl)-2,3,4,5-tetrahydrobenzo[b][1,4]oxazepin-3-yl)oxalamide] | < 100 |
| < 100 | C[C@@H](NC(=O)C(=O)N[C@H]1COc2ccc(C#CCN3CC[C@@H](O)C3)cc2N(C)C1=O)c1ccccc1 [Example 128, N^1-((S)-7-(3-((R)-3-hydroxypyrrolidin-1-yl)prop-1-yn-1-yl)-5-methyl-4-oxo-2,3,4,5-tetrahydrobenzo[b][1,4]oxazepin-3-yl)-N^2-((R)-1-phenylethyl)oxalamide] | < 100 |
| < 100 | C[C@@H](NC(=O)C(=O)N[C@H]1COc2ccc(C#CCN3CC[C@H](O)C3)cc2N(C)C1=O)c1ccccc1 [Example 130, N^1-((S)-7-(3-((S)-3-hydroxypyrrolidin-1-yl)prop-1-yn-1-yl)-5-methyl-4-oxo-2,3,4,5-tetrahydrobenzo[b][1,4]oxazepin-3-yl)-N^2-((R)-1-phenylethyl)oxalamide] | < 100 |
| < 100 | C[C@@H](NC(=O)C(=O)N[C@H]1COc2ccc(C#CC3(O)COC3)cc2N(C)C1=O)c1ccccc1 [Example 132, N^1-((S)-7-((3-hydroxyoxetan-3-yl)ethynyl)-5-methyl-4-oxo-2,3,4,5-tetrahydrobenzo[b][1,4]oxazepin-3-yl)-N^2-((R)-1-phenylethyl)oxalamide] | < 100 |
| < 100 | C[C@@H](NC(=O)C(=O)N[C@H]1COc2ccc(C#CC3CCN(CC#N)CC3)cc2N(C)C1=O)c1ccccc1 [Example 137, N^1-((S)-7-((1-(cyanomethyl)piperidin-4-yl)ethynyl)-5-methyl-4-oxo-2,3,4,5-tetrahydrobenzo[b][1, 4]oxazepin-3-yl)-N^2-((R)-1-phenylethyl)oxalamide] | < 100 |
| < 100 | C[C@@H](NC(=O)C(=O)N[C@H]1COc2ccc(C#CCN3CCC(O)CC3)cc2N(C)C1=O)c1ccccc1 [Example 138, N^1-((S)-7-(3-(4-hydroxypiperidin-1-yl)prop-1-yn-1-yl)-5-methyl-4-oxo-2,3,4,5-tetrahydrobenzo[b][1,4]oxazepin-3-yl)-N^2-((R)-1-phenylethyl)oxalamide] | < 100 |
| < 100 | C[C@@H](NC(=O)C(=O)N[C@H]1COc2ccc(C#CCN3CCC(=O)CC3)cc2N(C)C1=O)c1ccccc1 [Example 139, N^1-((S)-5-methyl-4-oxo-7-(3-(4-oxopiperidin-1-yl)prop-1-yn-1-yl)-2,3,4,5-tetrahydrobenzo[b][1, 4]oxazepin-3-yl)-N^2-((R)-1-phenylethyl)oxalamide] | < 100 |
| < 100 | C[C@@H](NC(=O)C(=O)N[C@H]1COc2ccc(C#CCN3CCOCC3)cc2N(C)C1=O)c1ccccc1 [Example 140, N^1-((S)-5-methyl-7-(3-morpholinoprop-1-yn-1-yl)-4-oxo-2,3,4,5-tetrahydrobenzo[b][1,4]oxazepin-3-yl)-N^2-((R)-1-phenylethyl)oxalamide] | < 100 |
| < 100 | C[C@@H](NC(=O)C(=O)N[C@H]1COc2ccc(C#CCN3C(=O)CCC3=O)cc2N(C)C1=O)c1ccccc1 [Example 144, N^1-((S)-7-(3-(2,5-dioxopyrrolidin-1-yl)prop-1-yn-1-yl)-5-methyl-4-oxo-2,3,4,5-tetrahydrobenzo[b][1,4]oxazepin-3-yl)-N^2-((R)-1-phenylethyl)oxalamide] | < 100 |
| < 100 | C[C@@H](NC(=O)C(=O)N[C@H]1COc2ccc(C#CCN3CCNC(=O)C3)cc2N(C)C1=O)c1ccccc1 [Example 145, N^1-((S)-5-methyl-4-oxo-7-(3-(3-oxopiperazin-1-yl)prop-1-yn-1-yl)-2,3,4,5-tetrahydrobenzo[b][1, 4]oxazepin-3-yl)-N^2-((R)-1-phenylethyl)oxalamide] | < 100 |
| < 100 | C[C@@H](NC(=O)C(=O)N[C@H]1COc2ccc(C#CCN(C)C)cc2N(C)C1=O)c1ccccc1 [Example 146, N^1-((S)-7-(3-(dimethylamino)prop-1-yn-1-yl)-5-methyl-4-oxo-2,3,4,5-tetrahydrobenzo[b][1,4]oxazepin-3-yl)-N^2-((R)-1-phenylethyl)oxalamide] | < 100 |
